{
  "source": "patent US12097172B2",
  "about": "“Prevention and treatment of diabetic nephropathy” (THE CHILDREN'S MEDICAL CENTER CORPORATION, priority 2016, dated 2024)",
  "key": {"CXCR1 and CXCR2": {"test_system": "CXCR1 and CXCR2", "conditions": "mice; cited from earlier work"}, "Human podocyte cells": {"test_system": "Human podocyte cells", "experiment": "IL8 challenge of human podocytes in vitro (stress fibers, cortical actin, cell blebbing, synaptopodin)", "type": "cell-based", "description": "Human podocyte cells bearing a transgene for the thermosensitive (ts58A) variant of the SV40 T antigen, which make them responsive to interferon-γ for proliferation, were cultured and allowed to grow to 80% confluence at 33° C. (designated as day 0). Cells were then thermoshifted to 37° C., causing inactivation of the SV40 T antigen and cessation of cell replication. Podocytes were cultured at different glucose concentrations (normal glucose: 5 mM [NG]; high glucose: 30 mM [HG]) for 5 days. Mannitol was used as an osmotic control for high glucose (mannitol 20 mM+glucose 10 mM) (FIGS. 10A and 10B).\nPodocytes were grown on round glass coverslips (VWR, Radnor, PA) were fixed with paraformaldehyde and then permeabilized with 0.3% Triton X-100 (Fisher Scientific, Waltham, MA). Cells were incubated with rhodamine phalloidin (Invitrogen, Carlsbad, CA) to label F-actin networks and visualize stress fibers. Standard fluorescent microscopy was used to assess stress fiber formation. The percentage of cells containing intact actin filaments was assessed by manual cell counting."}, "db/db mice": {"test_system": "db/db mice", "experiment": "KC/CXCR2 axis blockade with Reparixin in db/db diabetic mice (urinary albumin excretion, glycemia, kidney histopathology)", "type": "in vivo", "source_text": "Kidneys from db/db mice at 8, 12 and 25 weeks of age were surgically removed using standard techniques. To perform standard light microscopy, kidneys were fixed in 4% buffered paraformaldehyde (PFA), dehydrated, and paraffin-embedded. AxioVision software 4.3 was used to record the images from Periodic Acid Schiff (PAS) and Trichrome staining. The evaluation of mesangial matrix was electronically performed using a macro built on the AxioVision analysis module (Carl Zeiss Spa, Thornwood, NY). Glomeruli were identified as a region of interest (ROI) and mesangium was highlighted by a color threshold protocol. Binary images were then produced and mesangium was automatically calculated as percentage of the glomerular area. Image acquisition was performed with a Zeiss Axioscope 40FL microscope and AxioCam MRc5 digital video camera (Carl Zeiss SpA). AxioVision software 4.3 was used to record images and AxioVision analysis module to analyze the results (Carl Zeiss SpA). In order to assess the potential role of IL8 blockade in DN progression, 7 weeks old db/db mice were treated with Reparixin 15 mg/kg (ip) twice a day for 18 weeks (up to 25 weeks of age). Briefly, animals were housed in metabolic cages (Nalgene) to separate feces and urine within a light-controlled environment and provided with water ad-libitum. Sample collection tubes passed below the cages and through small holes in the bottom of the light controlled environment. Urine samples from db/db mice were collected through a metabolic cage at week 8, 12, and 25. The BeadLyte Mouse Multi-cytokine Beadmaster Kit (Millipore, Billerica, MA) was used according to the manufacturer's protocol to determine cytokine levels of IL8. Briefly, the supernatant was incubated with beads conjugated to the IL8 alone for a specified amount of time, and then with biotinylated reporters and streptavidin-phycoerythrin solution for 30 min. A Luminex100 reader (Luminex Corporation, Austin, TX) was used to measure the sample cytokine level. All in vitro and in vivo experimental data presented herein in the examples were performed in triplicate, unless indicated otherwise. Proteinuria in db/db mice was performed in 10 untreated and 30 treated animals. Prism statistical software (La Jolla, CA—USA) was used for data analysis. […] For discrete variables, χ^2 test was used. For all tests, p<0.05 was considered significant."}},
  "note": "Where a name gives a salt, the structure may show the parent alone.",
  "data": [
    {"molecule": "C[C@@H](C(=O)NS(C)(=O)=O)c1ccc(OS(=O)(=O)C(F)(F)F)cc1", "note": "[Ladarixin, R(-)-2-[(4′-trifluoromethanesulfonyloxy)phenyl] propionyl-methanesulfonamide sodium salt]", "values": [
      {"measurement": "effect on type 1 diabetes", "setting": "CXCR1 and CXCR2", "value": "able to block and revert type 1 diabetes in mice"}
    ]},
    {"molecule": "CC(C)Cc1ccc([C@@H](C)C(=O)NS(C)(=O)=O)cc1", "note": "[Reparixin, R(-)-2-[(4-isobutylphenyl)propionyl]-methanesulfonamide]", "values": [
      {"measurement": "rescue from IL8 induced damage (loss of stress fibers; increase cortical actin; cell blebbing; loss of synaptopodin expression)", "setting": "Human podocyte cells; reparixin 100 μM, IL8 100 nM, normal glucose and high glucose", "value": "able to rescue podocytes from IL8 induced damage"},
      {"measurement": "mesangial expansion (kidney histopathology)", "setting": "db/db mice; db/db mice at 25 weeks of age, treated vs control mice", "value": "reduced mesangial expansion"},
      {"measurement": "urinary albumin excretion (UAE)", "setting": "db/db mice; db/db mice at 25 weeks of age, Reparixin 15 mg/kg ip twice a day for 18 weeks, p<0.01 vs Ctrl", "value": "211.1 ± 24.4", "unit": "µg/mL"},
      {"measurement": "urinary albumin levels over time", "setting": "db/db mice; db/db mice, weeks 8, 12 and 25, Reparixin 15 mg/kg ip twice a day", "value": "remained stable over time"},
      {"measurement": "effect on glycemic control", "setting": "db/db mice; db/db mice, Reparixin 15 mg/kg ip twice a day for 18 weeks", "value": "No effect"}
    ]},
    {"molecule": "IL8: Interleukin-8 chemokine, ligand of CXCR1 and CXCR2, used as challenge on podocytes", "values": [
      {"measurement": "stress fibers (phalloidin staining)", "setting": "Human podocyte cells; IL8 100 nM, NG and HG, Ctrl vs. IL8 p<0.05", "value": "loss of stress fibers"},
      {"measurement": "cell morphology", "setting": "Human podocyte cells; IL8 treatment, NG and HG", "value": "cell blebbing"},
      {"measurement": "cortical actin", "setting": "Human podocyte cells; IL8 treatment, NG and HG", "value": "dose dependent increase in cortical actin"}
    ]}
  ]
}
